Experiments:
cathepsin B = cathepsin B (Rattus norvegicus, UniProt P00787); experiment: In vitro assay for cathepsin B inhibition; type: biochemical; conditions: r rat cathepsin B; pH 5.1; 10 min incubation at room temperature; substrate N-CBZ-Phe-Arg-AMC (5 mM, 20 μl)
Method: The compounds of formula I were tested for inhibition of cathepsin B using the known method (A. J. Barret et al., Biochem. J. 1982, 201, 189-198). To a 170 μl of enzyme-buffer mixture (enzyme: r rat cathepsin B, diluted to give approximate 10 F units/min, buffer: 56 mM sodium acetate, 1.124 mM EDTA, 10 mM DTT, pH 5.1) a 10 μL of inhibitor (dissolved in DMSO) was added. After 10 min of incubation at room temperature, a 20 μl of 5 mM substrate (N-CBZ-Phe-Arg-AMC, dissolved in DMSO) was added to initiate reaction. Reading is followed up for 10 min at the fluoroscan reader (excitation at 380 nm emission at 460 nm).
(§1) A plot of percentage of inhibition vs inhibitor concentration is obtained, and IC50 is determined using a linear regression calculation (concentration of inhibitor which will give 50% inhibition).

cathepsin L = cathepsin L (Rattus norvegicus, UniProt P07154); experiment: In vitro assay for cathepsin L inhibition; type: biochemical; conditions: r rat cathepsin L; pH 5.0; 10 min incubation at room temperature; substrate N-CBZ-Phe-Arg-AMC (1 mM, 20 μl)
Chain of cathepsin L (P07154 114-334): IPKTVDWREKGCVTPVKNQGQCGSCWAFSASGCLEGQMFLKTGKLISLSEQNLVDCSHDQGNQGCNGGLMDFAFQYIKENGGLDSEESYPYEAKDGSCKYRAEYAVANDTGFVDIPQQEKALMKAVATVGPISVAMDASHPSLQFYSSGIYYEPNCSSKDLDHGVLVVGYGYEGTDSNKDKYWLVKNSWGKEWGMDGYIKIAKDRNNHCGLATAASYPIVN
Method: To a 170 μl of enzyme-buffer mixture (enzyme: r rat cathepsin L, diluted to give approximate 15 F units/min, buffer: 58.8 mM sodium citrate, 1.18 mM EDTA, 235 mM sodium chloride, 5 mM DTT, pH 5.0) a 10 μL of inhibitor (dissolved in DMSO) was added. After 10 min of incubation at room temperature, a 20 μl of 1 mM substrate (N-CBZ-Phe-Arg-AMC, dissolved in DMSO) was added to initiate reaction. Reading is followed up for 10 min at the fluoroscan reader (excitation at 380 nm emission at 460 nm).
as §1

Chain of cathepsin B (P00787 80-333 limits assumed): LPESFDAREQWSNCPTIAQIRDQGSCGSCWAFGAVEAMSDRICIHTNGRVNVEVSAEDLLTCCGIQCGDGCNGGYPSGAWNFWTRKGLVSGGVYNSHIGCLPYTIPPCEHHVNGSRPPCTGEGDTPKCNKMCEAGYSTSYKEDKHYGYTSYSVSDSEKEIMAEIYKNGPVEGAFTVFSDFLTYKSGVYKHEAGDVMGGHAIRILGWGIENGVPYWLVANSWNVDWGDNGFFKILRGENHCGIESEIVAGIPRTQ

## CC(=O)O[C@@H]1NC(=O)[C@H]1NC(=O)[C@H](Cc1ccc2ccccc2c1)NC(=O)NCc1ccccc1 [Example 21, (3S,4S)-3-{N-(benzylaminocarbonyl)-β-(2-naphthyl)-L-alanyl}-amino-4-acetoxy-azetidin-2-one]
Cathepsin B
  IC50: 2.2 µM
Cathepsin L
  IC50: 0.01 µM

## N[C@@H](Cc1ccc(OC2NC(=O)[C@H]2NC(=O)[C@H](Cc2ccc3ccccc3c2)NC(=O)NCc2ccccc2)cc1)C(=O)O (stereo partly drawn) [Example 22, (3S,4SR)-3-{N-(benzylaminocarbonyl)-β-(2-naphthyl)-L-alanyl}-amino-4-{4-(2S-2-amino-2-carboxy-ethyl)-phenoxy}-azetidin-2-one]
Cathepsin B
  IC50: 8.4 µM
Cathepsin L
  IC50: 0.013 µM

## CC(=O)O[C@@H]1NC(=O)[C@H]1NC(=O)[C@H](CCCNC(N)=O)NC(=O)CCc1ccccc1 [Example 23, (3S,4S)-3-{N-(3-phenylpropionyl)-L-citrullinyl}-amino-4-acetoxy-azetidin-2-one]
Cathepsin B
  IC50: 11 µM
Cathepsin L
  IC50: 11.5 µM

## CC(=O)O[C@@H]1NC(=O)[C@H]1NC(=O)[C@H](CCCN=C(N)N[N+](=O)[O-])NC(=O)CCc1ccccc1 [Example 24, (3S,4S)-3-{N^α -(3-phenylpropionyl)-N-nitro-L-arginyl}-amino-4-acetoxy-azetidin-2-one]
Cathepsin B
  IC50: 31.4 µM
Cathepsin L
  IC50: 0.0168 µM

## CC(C)(C)OC[C@H](NC(=O)OCc1ccccc1)C(=O)N[C@@H]1C(=O)N[C@@H]1Oc1ccccc1 [Example 25, (3S,4R)-3-(2S-2-benzyloxycarbonylamino-2-t-butyloxymethyl-acetamido)-4-phenoxy-azetidin-2-one]
Cathepsin B
  IC50: 11 µM
Cathepsin L
  IC50: 2.19 µM

## CC(OC(C)(C)C)[C@H](NC(=O)OCc1ccccc1)C(=O)N[C@@H]1C(=O)N[C@@H]1Oc1ccccc1 (stereo partly drawn) [Example 26, (3S, 4R)-3-[2S-2-benzyloxycarbonylamino-2-(1-t-butyloxyethyl)-acetamido]-4-phenoxy-azetidin-2-one]
Cathepsin B
  IC50: > 50 µM
Cathepsin L
  IC50: 10.7 µM

## CC(C)(C)C[C@H](NC(=O)OCc1ccccc1)C(=O)N[C@@H]1C(=O)N[C@H]1Oc1ccccc1 [Example 27, (3S, 4S)-3-(2S-2-benzyloxycarbonylamino-2-t-butylmethyl-acetamido)-4-phenoxy-azetidin-2-one]
Cathepsin B
  IC50: 23 µM
Cathepsin L
  IC50: 2.3 µM

## CC(C)(C)C[C@H](NC(=O)CCc1ccccc1)C(=O)N[C@@H]1C(=O)N[C@H]1Oc1ccccc1 [Example 28, (3S, 4S)-3-[2S-2-(3-phenylpropionoyl)amino-2-t-butylmethyl-acetamido]-4-phenoxy-azetidin-2-one]
Cathepsin B
  IC50: 45 µM
Cathepsin L
  IC50: 11.4 µM

## CC(C)(C)[C@H](NC(=O)CCc1ccccc1)C(=O)N[C@@H]1C(=O)N[C@H]1Oc1ccccc1 [Example 29, (3S, 4S)-3-[2S-2-(3-phenylpropionoyl)amino-2-t-butyl-acetamido]-4-phenoxy-azetidin-2-one]
Cathepsin B
  IC50: > 50 µM
Cathepsin L
  IC50: > 50 µM

## COc1ccc(C[C@H](NC(=O)CCc2ccccc2)C(=O)N[C@@H]2C(=O)N[C@H]2Oc2ccccc2)cc1OC [Example 30, (3S, 4s)-3-[2S-2-(3-phenylpropionoyl)amino-2-(3,4-dimethoxyphenyl)methyl-acetamido]-4-phenoxy-azetidin-2-one]
Cathepsin B
  IC50: 48 µM
Cathepsin L
  IC50: 1.6 µM

## O=C(CCc1ccccc1)N[C@@H](Cc1ccc2c(c1)OCCO2)C(=O)N[C@@H]1C(=O)N[C@H]1Oc1ccccc1 [Example 31]
Cathepsin B
  IC50: 9.7 µM
Cathepsin L
  IC50: 0.08 µM
